# Laboratory results reported in US8686224B2, “Plant defense signal peptides” (priority 2005, dated 2014).
# pEC50, pKd: −log10 of the molar value. Non-standard residues stand in square brackets, D forms with d. Residues, ends and D or L forms follow the SMILES beside them. Primed or numbered codes have the meaning given here. No end group written: not given here. *: point of attachment. APDP″ = photoaffinity cross-linker coupled to Cys through a disulfide bond, [N-]=[N+]=Nc1ccc(C(=O)NCCCCNC(=O)CCS*)c(O)c1; Tyr(3-I) = N[C@@H](Cc1ccc(O)c(I)c1)C(=O)O
# What was measured:
# [1] = system: Arabidopsis suspension cultured cells; experiment: Alkalinization assay with Arabidopsis suspension cultured cells; type: cell-based, Arabidopsis thaliana
# Protocol: For the alkalinization assay, cells suspensions are grown in a volume of 40 ml in a 125 ml flask. Tobacco and Arabidopsis cells are typically grown for 3-5 days before use. Tomato cells are typically grown for 4-7 days before use. Soybean cells are generally grown for 3-7 days before use. Preferably, cells are in mid to log or log phase when they are to be used for the alkalinization assay. A 1 ml pipette tip with the end cut off (to prevent clogging of the tip with the cells) is used to aliquot 1 ml of the cells from the suspension into a well in a 24-well culture cluster plate. The flask is swirled between aliquots to ensure that the cells remain evenly dispersed throughout the cell suspension and an roughly equivalent number of cells is provided to each well. The plate(s) are then shaken at 160 rpm for 1 hour. Small aliquots ([…]) of extracted peptide fractions are then added to the wells. After 20 min, the pH of the cell media is measured and recorded.
# Alkalinization Assay. Arabidopsis suspension cells were grown with shaking in the dark in 125 mL flasks, using 40 mL NT media as previously described (Pearce et al. Proc. Natl. Acad. Sci. USA 98:12843-12847, 2001). The cells were transferred weekly (2.5 mL) and used for assays 3-5 days after transfer. One mL aliquots of cells were transferred to wells of 24-well culture plates and allowed to equilibrate for one hour while agitated on a rotary shaker at 160 rpm. Aliquots of 1-10 μL from extracts or fractions eluted from HPLC columns were added to cells and the pH of the media was monitored after 20 min.
# Alkalinization assay. Medium alkalinization activity of Arabidopsis suspension cultured cells by AtPep1 analogs was analyzed as previously described for systemin (Pearce et al., Science 253:895-897, 1991), RALF (Pearce et al. Proc. Natl. Acad. Sci. USA 98:12843-12847, 2001), HypSys peptides (Pearce and Ryan. J. Biol. Chem. 278:30044-30050, 2003; Pearce et al., Nature 411:817-820, 2001), and AtPep1 (supra). The alkalinization activity of azido-Cys-AtPep1 were carried out after incubation the analog with cells in darkness for 10 min, when the pH was recorded.
# Analogs of AtPep1 from the C-terminus of AtPep1 were synthesized and assayed in the alkalinization assay. One mL aliquots of 4 day old Arabidopsis cells were allowed to equilibrate on an orbital shaker at 180 rpm for one hour. A 10 μL aliquot of each peptide solution was added to the cells. Peptide concentrations of 0.25 nM, 2.5 nM, and 25 nM were tested. After 20 min, the pH of the media was recorded.
# The 15-mer from the carboxy-terminus of AtPep1 ([…] (SEQ ID NO: 78)) was substituted with alanine at each position to assess which amino acids were necessary for the alkalinizing activity. […] The set of substituted 15-mer peptides was assayed using four-day-old Arabidopsis cells. […] of each peptide (2.5 pmoles) was added to 1 ml of cells to make a final concentration of 2.5 nM. After 20 min, the pH of the media was recorded. The data is the average of three separate experiments.
# OsPEPR1 = experiment: Medium alkalinization of transgenic tobacco cells expressing OsPEPR1; type: cell-based, rice; settings: for pEC50: read-out: half-maximal activity
# Sequence of OsPEPR1 (as listed by the source): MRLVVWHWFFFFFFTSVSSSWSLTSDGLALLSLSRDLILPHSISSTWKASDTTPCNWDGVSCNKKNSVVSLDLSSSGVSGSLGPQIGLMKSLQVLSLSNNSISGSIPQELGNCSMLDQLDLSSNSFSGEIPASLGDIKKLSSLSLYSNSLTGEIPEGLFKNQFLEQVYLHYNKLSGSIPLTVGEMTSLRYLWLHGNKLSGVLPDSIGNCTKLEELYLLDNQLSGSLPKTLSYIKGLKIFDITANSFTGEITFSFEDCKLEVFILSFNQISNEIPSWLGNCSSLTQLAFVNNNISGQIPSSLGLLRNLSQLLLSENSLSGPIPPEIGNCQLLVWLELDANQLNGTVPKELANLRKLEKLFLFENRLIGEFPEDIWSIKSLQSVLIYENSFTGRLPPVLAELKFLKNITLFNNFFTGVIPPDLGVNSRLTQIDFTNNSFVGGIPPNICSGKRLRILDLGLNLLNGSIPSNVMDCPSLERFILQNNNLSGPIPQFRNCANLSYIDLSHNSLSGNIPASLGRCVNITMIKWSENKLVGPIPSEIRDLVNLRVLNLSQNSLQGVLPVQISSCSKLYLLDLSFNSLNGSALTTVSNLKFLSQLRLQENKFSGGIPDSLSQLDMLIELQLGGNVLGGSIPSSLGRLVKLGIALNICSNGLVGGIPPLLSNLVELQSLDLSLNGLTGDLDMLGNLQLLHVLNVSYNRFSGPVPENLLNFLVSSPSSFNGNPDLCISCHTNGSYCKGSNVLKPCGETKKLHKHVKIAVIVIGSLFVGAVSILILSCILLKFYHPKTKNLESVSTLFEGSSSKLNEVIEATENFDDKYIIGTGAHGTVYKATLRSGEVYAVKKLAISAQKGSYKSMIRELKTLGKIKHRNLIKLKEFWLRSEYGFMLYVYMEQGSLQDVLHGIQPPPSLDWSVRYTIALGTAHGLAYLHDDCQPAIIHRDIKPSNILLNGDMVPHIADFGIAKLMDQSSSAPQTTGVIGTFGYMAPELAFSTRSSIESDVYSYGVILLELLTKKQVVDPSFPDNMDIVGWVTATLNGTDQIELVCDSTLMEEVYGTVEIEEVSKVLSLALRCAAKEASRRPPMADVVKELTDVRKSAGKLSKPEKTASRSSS
# Description: We identified rice homologues of AtPEPR1 in the Rice Annotation Project database (see the website located at www.rapdb.dna.affrc.go.jp). The rice homologues, OsPEPR1 (Os08g0446200) and OsPEPR2 (Os08g0446400), have 60% and 62% amino acid similarities, respectively. The OsPEPR1 has 26 LRRs in the extracellular region, which is the same as AtPEPR1. The OsPEPR2 has a shorter extracellular region with 22 LRRs. Transgenic tobacco cells expressing either OsPEPR1 or OsPEPR2 were created to examine the possibility of receptor binding to monocot peptides. OsPep3a, OsPep3b, OsPep3c, ZmPep1 and ZmPep4a were supplied to suspension cultured transgenic tobacco cells, and medium pH was measured. OsPep3a, OsPep3b, ZmPep1 and ZmPep4a caused medium alkalinization in OsPEPR1 expressing cells with a 1.2 pH unit increase and a half-maximal activity of 0.25 nM.
# AtPEPR1 = biological target: T1, AtPEPR1 (Arabidopsis thaliana, UniProt Q9SSL9); experiment: Medium alkalinization of transgenic tobacco cells expressing AtPEPR1; type: cell-based; settings: for change in pH: 2.5 nanomolar
# T1 construct: Tobacco cells were transformed with a CaMV-35S-AtPEPR1 gene; expressed in transfected cells; host or cells: tobacco suspension-cultured cells (Agrobacterium-mediated, CaMV 35S promoter)
# T1 sequence (Q9SSL9 29-1123): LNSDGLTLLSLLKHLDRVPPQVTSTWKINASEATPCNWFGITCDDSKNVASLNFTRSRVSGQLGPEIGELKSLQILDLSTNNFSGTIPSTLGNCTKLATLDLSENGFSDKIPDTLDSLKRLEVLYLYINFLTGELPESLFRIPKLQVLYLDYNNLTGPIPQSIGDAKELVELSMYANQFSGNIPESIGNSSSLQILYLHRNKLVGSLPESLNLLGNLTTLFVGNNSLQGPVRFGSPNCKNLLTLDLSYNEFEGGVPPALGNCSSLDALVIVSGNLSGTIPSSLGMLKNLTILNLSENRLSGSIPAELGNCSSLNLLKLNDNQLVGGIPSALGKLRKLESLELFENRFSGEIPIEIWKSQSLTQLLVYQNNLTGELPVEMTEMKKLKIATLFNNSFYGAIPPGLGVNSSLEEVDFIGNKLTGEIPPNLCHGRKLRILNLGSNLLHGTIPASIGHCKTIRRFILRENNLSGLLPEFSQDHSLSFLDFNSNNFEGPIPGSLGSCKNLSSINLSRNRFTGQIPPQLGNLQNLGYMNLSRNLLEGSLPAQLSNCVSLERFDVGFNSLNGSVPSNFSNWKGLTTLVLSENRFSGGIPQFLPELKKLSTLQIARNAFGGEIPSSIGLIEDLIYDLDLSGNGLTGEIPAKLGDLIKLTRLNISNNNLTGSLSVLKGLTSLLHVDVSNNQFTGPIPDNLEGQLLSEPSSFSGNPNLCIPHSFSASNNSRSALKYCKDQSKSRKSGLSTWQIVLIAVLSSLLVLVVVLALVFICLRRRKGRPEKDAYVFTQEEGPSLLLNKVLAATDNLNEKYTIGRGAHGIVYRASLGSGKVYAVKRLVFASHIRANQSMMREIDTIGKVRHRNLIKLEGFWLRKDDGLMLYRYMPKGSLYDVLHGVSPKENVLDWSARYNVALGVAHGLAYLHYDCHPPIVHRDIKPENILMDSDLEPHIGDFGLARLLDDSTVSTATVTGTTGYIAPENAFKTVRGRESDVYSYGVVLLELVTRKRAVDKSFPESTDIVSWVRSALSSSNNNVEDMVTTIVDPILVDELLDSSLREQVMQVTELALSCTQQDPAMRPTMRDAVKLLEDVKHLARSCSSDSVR
# Description: Tobacco cells were transformed with a CaMV-35S-AtPEPR1 gene to determine whether the foreign receptor protein was targeted to the cell surface, where, in response to AtPep1, it would activate intracellular signaling to effect the alkalinization of the medium of the transgenic tobacco cells. Expression of the AtPEPR1 gene was confirmed by RT-PCR analysis of RNA from three independently transformed tobacco cell lines. […] AtPep2-7 was also supplied to the transgenic tobacco cells expressing AtPEPR1.
# To clarify whether AtPEPR2 binds to AtPep1, the AtPEPR2 coding region was fused to the CaMV 35S promoter and introduced into tobacco suspension-cultured cells by Agrobacterium. Tobacco cells expressing AtPEPR1 and GUS genes were also created as positive and negative controls, respectively. […] These transgenic lines were analyzed for alkalinizing activity as previously described (Pearce et al., Proc. Natl. Acad. Sci. USA 98, 12843-12847, 2001).
# The response to all AtPep peptides in transgenic tobacco cells expressing either AtPEPR1 or AtPEPR2 was analyzed by the medium alkalinization assay.
# [2] = biological target: T2, AtPep1 receptor (At1g73080, AtPEPR1) (Arabidopsis thaliana, UniProt Q9SSL9); experiment: Binding assay of 125I1-Tyr-AtPep1 with Arabidopsis suspension cultured cells
# T2 sequence (Q9SSL9 29-1123): T1 sequence (Q9SSL9 29-1123)
# Protocol: Binding assays. […] The filtered cells were washed three times with 5 mL of cold MS medium containing 3% sucrose, suspended in 1 mL MS medium containing 3% sucrose in a glass test tube, and analyzed for total radioactivity in a gamma-ray counter (Isodata 2020; Isodata Inc., Palatine, Ill.).
# [3] = system: P. syringae pv. tomato DC3000 (Pst DC3000); experiment: Pst DC3000 inoculation of Arabidopsis leaves with peptide pre-infiltration; type: in vivo, Pseudomonas syringae; settings: wild type, cfu/cm^2 4 days after infection; AtPep1 10 nM solution
# Description: The resistance to P. irregulare requires the JA signaling pathway in Arabidopsis (Staswick et al, Plant J. 15: 747-754, 1998), and AtPep peptides induced PDF1.2, a marker gene for the JA response (Huffaker et al., Proc. Natl. Acad. Sci. USA 103: 10098-10103, Huffaker and Ryan, Proc. Natl. Acad. Sci. USA 104: 10732-10736, 2007). […] In order to examine this possibility, Arabidopsis plants were inoculated with P. syringae pv. tomato DC3000 (Pst DC3000) with or without AtPep1 pre-infiltration. Pst DC3000 was extracted from the infected leaves 4 days after infection and colony forming units (cfu/cm^2) were calculated. […] The reduction of Pst DC3000 growth was also not observed when the double mutant, pepr1-1/pepr2-1, was pre-infiltrated with AtPep1. […] Pre-infiltration of AtPep2-6 also attenuated Pst DC3000 growth to different degrees.
# To assess the importance of AtPEPR1 and AtPEPR2 in the resistance to Pst DC3000 after infiltration of AtPep1, T-DNA insertional mutants were inoculated. When 1 μM AtPep1 was infiltrated into leaves one day prior to Pst DC3000 inoculation, the size of the necrotic regions were reduced in both wild type and single mutant lines, pepr1-1 and pepr2-1. […] Similar results were obtained when another set of mutant lines, pepr1-2, pepr2-2 and pepr1-2/pepr2-2, was used.
# [4] = Arabidopsis suspension cultured cells, pH of media after 20 min
# [5] = AtPEPR1 expressing tobacco cells
compound,measurement,setting,value
RGKEKVSSGRPGQHN [Peptide 15-mer],activity at the lowest concentration tested,[1]; 0.25 nM,substantial activity
same,activity in the alkalinization assay,[1]; [4],nearly as active as the native peptide
"VRRRPTTPGRPREGSGGNGGNHH [ZmPep1, VRRRPTTPGRPREGSGGNGGNHH]",medium pH increase,OsPEPR1,1.2 pH unit
same,pEC50,OsPEPR1,9.60
"RRPTPPGGAGPREGSGGRGGVIH [OsPep3b, RRPTPPGGAGPREGSGGRGGVIH]",medium pH increase,OsPEPR1,1.2 pH unit
same,pEC50,OsPEPR1,9.60
VSGNVAARKGKQQTSSGKGGGTN (VSGNVAARKGKQQTSSGKGGGTN) [AtPep7],change in pH,AtPEPR1; [5],did not increase medium pH
same,alkalinization of the medium,AtPEPR1; [5],weaker activity
SSGRPGQHN,activity in the alkalinization assay,[1]; [4],inactive
15-mer RGKEKVSSGRPGQHN with Ser at position 7 replaced by Ala (-ASGR-) [Ser to Ala substitution at position 7],activity in the alkalinization assay,[1]; [4],little activity
same,competition with the non-substituted 15-mer for receptor binding,[2],neither of these analogs were able to compete
CC(C)[C@H](NC(=O)[C@H](CCCCN)NC(=O)[C@@H](NC(=O)[C@H](C)NC(=O)[C@@H](N)Cc1ccc(O)c(I)c1)[C@@H](C)O)C(=O)N[C@@H](CCCCN)C(=O)N[C@@H](C)C(=O)N[C@@H](CCCCN)C(=O)N[C@@H](CCC(N)=O)C(=O)N[C@@H](CCCNC(=N)N)C(=O)NCC(=O)N[C@@H](CCCCN)C(=O)N[C@@H](CCC(=O)O)C(=O)N[C@@H](CCCCN)C(=O)N[C@H](C(=O)N[C@@H](CO)C(=O)N[C@@H](CO)C(=O)NCC(=O)N[C@@H](CCCNC(=N)N)C(=O)N1CCC[C@H]1C(=O)NCC(=O)N[C@@H](CCC(N)=O)C(=O)N[C@@H](Cc1c[nH]cn1)C(=O)N[C@@H](CC(N)=O)C(=O)O)C(C)C [mono-iodo-Tyr-AtPep1] (H-[Tyr(3-I)]ATKVKAKQRGKEKVSSGRPGQHN-OH),activity in the alkalinization assay,[1]; [4],as fully active as AtPep1
same,time to equilibration of binding,[2],≤ 4 min
same,peptide concentration saturating the sites,[2]; 10^6 cells/assay,about 0.1 nM
same,pKd,"[2]; Scatchard analysis of the saturation data, Arabidopsis suspension cultured cells",9.60
same,time to maximal binding to Arabidopsis cells,[2]; saturation kinetics,≤ 10 min
"GLPGKKNVLKKSRESSGKPGGTN [AtPep5, GLPGKKNVLKKSRESSGKPGGTN]",pEC50,AtPEPR1,~9.60
EIKARGKNKTKPTPSSGKGGKHN (EIKARGKNKTKPTPSSGKGGKHN) [AtPep4],change in pH,AtPEPR1; [5],did not increase medium pH
same,alkalinization of the medium,AtPEPR1; [5],weaker activity
15-mer RGKEKVSSGRPGQHN with Gly at position 9 replaced by Ala; inactive derivative of AtPep1 [Gly to Ala substitution at position 9],Pst DC3000 growth in leaves after pre-infiltration,[3],not observed
same,activity in the alkalinization assay,[1]; [4],little activity
same,pEC50,"[1]; Arabidopsis suspension cultured cells, pH of media after 20 min, read-out: half-maximal activity in the alkalinization assay",< 6.60
same,competition with the non-substituted 15-mer for receptor binding,[2],neither of these analogs were able to compete
"ITAVLRRRPRPPPYSSGRPGQNN [AtPep6, ITAVLRRRPRPPPYSSGRPGQNN]",pEC50,AtPEPR1,~9.60
same,maximal change,AtPEPR1; [5],1.2 pH units
azido-Cys-AtPep1: Cys-AtPep1 coupled through a disulfide bond to the photoaffinity cross-linker APDP (C(APDP″)ATKVKAKQRGKEKVSSGRPGQHN),activity in the alkalinization assay,[1]; [4],as fully active as the native peptide
